From ChEMBL document CHEMBL2029326, “Alstiphyllanines I-O, ajmaline type alkaloids from Alstonia macrophylla showing vasorelaxant activity” (Bioorg Med Chem, 2012)
Activity calls are given as the source filed them. The calls are words filed in the database; no cut-off is given here.

Legend:
Format in all cases: functional, tissue-based
Aorta [1] = experiment: Vasorelaxant activity in Wistar rat endothelium-intact thoracic aortic ring assessed as inhibition of phenylephrine-induced contraction at 30 uM measured after 60 mins
Aorta [2] = experiment: Vasorelaxant activity in Wistar rat endothelium-intact thoracic aortic ring assessed as inhibition of phenylephrine-induced contraction at 30 uM measured within 5 to 15 mins
Aorta [3] = experiment: Vasorelaxant activity in Wistar rat endothelium-intact thoracic aortic ring assessed as inhibition of phenylephrine-induced contraction at 100 uM measured after 60 mins
Aorta [4] = experiment: Vasorelaxant activity in Wistar rat endothelium-denuded thoracic aortic ring assessed as inhibition of phenylephrine-induced contraction measured after 60 mins
Aorta [5] = experiment: Vasorelaxant activity in Wistar rat endothelium-denuded thoracic aortic ring assessed as inhibition of phenylephrine-induced contraction measured after 60 mins in presence of 100 uM L-NMMA
Aorta [6] = experiment: Vasorelaxant activity in Wistar rat endothelium-denuded thoracic aortic ring assessed as inhibition of phenylephrine-induced contraction measured after 60 mins in presence of Bkca inhibitor TEA pretreated for 30 mins before contraction
Aorta [7] = experiment: Vasorelaxant activity in Wistar rat endothelium-denuded thoracic aortic ring assessed as inhibition of KCl-induced contraction at 30 uM pretreated for 30 mins measured after 60 mins
Aorta [8] = experiment: Vasorelaxant activity in Wistar rat phenylephrine-prestimulated endothelium-denuded thoracic aortic ring assessed as inhibition of CaCl2-induced contraction added before PE-stimulation

SMILES	Activity (Aorta [1])	other results
C/C=C1\CN2[C@H]3C[C@@]45c6ccccc6N(C)[C@@H]4[C@@H]2C[C@@H]1[C@@]3(C(=O)OC)C5OC(=O)c1cc(OC)c(OC)c(OC)c1 (some centres undefined)	Active	–
C/C=C1\CN2[C@H]3C[C@@]45c6ccccc6N(C(=O)c6ccccc6)[C@@H]4[C@@H]2C[C@@H]1C3(C(=O)OC)[C@H]5O (some centres undefined)	Active	–
C/C=C1\CN2[C@H]3C[C@@]45c6ccccc6N(C)[C@@H]4[C@@H]2C[C@@H]1[C@@]3(C(=O)OC)C5OC(C)=O (some centres undefined)	Active	Activity (Aorta [2]): Active; Activity (Aorta [3]): Active; Activity (Aorta [4]): Active; Activity (Aorta [5]): inactive; Activity (Aorta [6]): Dose-dependent effect; Activity (Aorta [7]): Active; Activity (Aorta [8]): Active
C/C=C1\CN2[C@H]3C[C@@]45c6ccccc6N(C(=O)c6ccc(OC)c(OC)c6)[C@@H]4[C@@H]2C[C@@H]1C3(C(=O)OC)[C@H]5OC(C)=O (relative stereo)	Active	–
C/C=C1\CN2[C@H]3C[C@@]45c6ccccc6N(C)[C@@H]4[C@@H]2C[C@@H]1[C@@]3(C(=O)OC)C5OC(=O)c1ccc(OC)c(OC)c1 (some centres undefined)	Active	–
C/C=C1/CN2[C@H]3C[C@@]45c6ccccc6N(C(=O)c6cc(OC)c(OC)c(OC)c6)[C@@H]4[C@@H]2C[C@@H]1C3(C(=O)OC)[C@H]5O (some centres undefined)	Active	–
C/C=C1\CN2[C@H]3C[C@@]45c6ccccc6N(C(=O)c6ccc(OC)c(OC)c6)[C@@H]4[C@@H]2C[C@@H]1C3(C(=O)OC)[C@H]5O (some centres undefined)	Active	–
C/C=C1\C[N+]2([O-])[C@H]3C[C@@H]1[C@@]1(C(=O)OC)C(O)[C@]4(C[C@@H]12)c1ccccc1N(C)[C@H]34 (some centres undefined)	Active	–
C/C=C1\CN2[C@H]3C[C@@]45c6ccccc6N(C(=O)c6cc(OC)c(OC)c(OC)c6)[C@@H]4[C@@H]2C[C@@H]1C3(C(=O)OC)[C@H]5OC(C)=O (some centres undefined)	Active	–
C/C=C1\C[N+]2([O-])[C@H]3C[C@@H]1[C@]1(C(=O)OC)[C@@H](OC(C)=O)[C@]4(C[C@@H]12)c1ccccc1N(C)[C@H]34	Active	–
C/C=C1\CN2[C@H]3C[C@@]45c6ccccc6N(C)[C@@H]4[C@@H]2C[C@@H]1[C@@]3(C(=O)OC)C5O (some centres undefined)	Active	–
C/C=C1\CN2[C@H]3C[C@@]45c6ccccc6N(C(=O)c6cc(OC)c(OC)c(OC)c6)[C@@H]4[C@@H]2C[C@@H]1C3(C(=O)OC)[C@H]5O (some centres undefined)	Active	–
